# pIC50: −log10 of the molar value.
# Target: human CTPS1 (Homo sapiens (Human), UniProt P17812)
# Experiment: hCTPS1 biochemical assay (ADP-Glo)
# Settings: hCTPS1 25 nM, ATP 120 uM, UTP 160 uM, GTP 60 uM, L-Glutamine 100 uM, 25 degrees C
# human CTPS1, sequence (P17812 whole entry): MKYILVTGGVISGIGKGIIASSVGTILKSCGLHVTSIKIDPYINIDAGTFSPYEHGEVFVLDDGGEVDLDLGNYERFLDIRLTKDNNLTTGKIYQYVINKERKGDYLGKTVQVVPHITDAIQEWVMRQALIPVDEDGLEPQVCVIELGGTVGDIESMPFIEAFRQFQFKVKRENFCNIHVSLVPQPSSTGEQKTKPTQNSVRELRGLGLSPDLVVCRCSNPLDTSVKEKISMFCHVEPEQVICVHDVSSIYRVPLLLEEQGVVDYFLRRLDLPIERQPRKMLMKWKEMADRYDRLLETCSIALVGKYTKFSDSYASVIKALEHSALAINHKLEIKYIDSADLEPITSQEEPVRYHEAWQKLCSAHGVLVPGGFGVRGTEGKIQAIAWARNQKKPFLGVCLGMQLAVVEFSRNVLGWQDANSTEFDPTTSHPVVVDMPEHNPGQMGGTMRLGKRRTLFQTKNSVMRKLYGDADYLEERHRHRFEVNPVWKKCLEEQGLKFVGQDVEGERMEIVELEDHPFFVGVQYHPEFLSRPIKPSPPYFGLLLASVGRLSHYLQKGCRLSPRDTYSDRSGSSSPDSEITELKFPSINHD
row,pIC50,Structure (SMILES)
1,6.00 to 7.00,"CCOc1cncc(-c2cnc(C(=O)N3CCNC[C@H]3c3ccnc(NS(=O)(=O)C4CC4)n3)s2)n1 [I-168, (S)—N-(4-(1-(5-(6-ethoxypyrazin-2-yl)thiazole-2-carbonyl)piperazin-2-yl)pyrimidin-2-yl)cyclopropanesulfonamide]"
2,> 7.00,O=C(NCc1cc(NS(=O)(=O)C2CC2)ccn1)c1ncc(-c2cnc3[nH]cc(CC(F)F)c3n2)s1 [I-215]
3,6.00 to 7.00,"CCOc1cncc(-c2cnc(C(=O)N3CCNC[C@H]3c3cc(NS(=O)(=O)C4CC4)ccn3)s2)n1 [I-211, (S)—N-(2-(1-(5-(6-ethoxypyrazin-2-yl)thiazole-2-carbonyl)piperazin-2-yl)pyridin-4-yl)cyclopropanesulfonamide]"
4,> 7.00,"CCOc1cncc(-c2ccc(C(=O)NCc3cc(NS(=O)(=O)C(F)F)ccn3)nc2)n1 [I-30, N-[[4-(difluoromethanesulfonamido)pyridin-2-yl]methyl]-5-(6-ethoxypyrazin-2-yl) pyridine-2-carboxamide]"
5,≤ 6.00,"Cc1c(-c2ccc(C(=O)NC3(c4csc(NS(=O)(=O)C5CC5)n4)CC3)cc2)cnn1C [I-261, N-[1-(2-cyclopropanesulfonamido-1,3-thiazol-4-yl)cyclopropyl]-4-(1,5-dimethylpyrazol-4-yl)benzamide]"
6,> 7.00,"CCOc1cncc(-c2cnc(C(=O)NC(CCN(C)C)c3cc(NS(=O)(=O)C4CC4)ccn3)s2)n1 (centres unmarked) [I-201, N-(1-(4-(cyclopropanesulfonamido)pyridin-2-yl)-3-(dimethylamino)propyl)-5-(6-ethoxypyrazin-2-yl)thiazole-2-carboxamide]"
7,> 7.00,"CCOc1cncc(-c2ccc(C(=O)N3CCC[C@H]3c3ccnc(NS(=O)(=O)C4CC4)n3)c(F)c2)n1 [I-286, N-[4-[(2S)-1-[4-(6-ethoxypyrazin-2-yl)-2-fluorobenzoyl]pyrrolidin-2-yl]pyrimidin-2-yl]cyclopropanesulfonamide]"
8,6.00 to 7.00,"CCOc1cncc(-c2ccc3c(c2)CN(C(CC)c2csc(NS(=O)(=O)C4CC4)n2)C3=O)n1 (stereo in doubt) [I-12a, (S)—N-(4-(1-(5-(6-ethoxypyrazin-2-yl)-1-oxoisoindolin-2-yl)propyl)thiazol-2-yl)cyclopropanesulfonamide]"
9,6.00 to 7.00,"CCOc1cncc(-c2cnc(C(=O)N[C@@H](C[C@@H]3CCCCN3C)c3cc(NS(=O)(=O)C4CC4)ccn3)s2)n1 (single isomer, unassigned) [I-134]"
10,> 7.00,"CCc1ccn2ncc(-c3cnc(C(=O)NCc4cc(NS(=O)(=O)C5CC5)ccn4)s3)cc12 [I-196, N-((4-(cyclopropanesulfonamido)pyridin-2-yl)methyl)-5-(5-ethylpyrrolo[1,2-b]pyridazin-3-yl)thiazole-2-carboxamide]"
11,6.00 to 7.00,"CCOc1cncc(-c2ccc3c(c2)CN(Cc2cc(NS(=O)(=O)C4CC4)ccn2)C3=O)n1 [I-43, N-(2-((5-(6-ethoxypyrazin-2-yl)-1-oxoisoindolin-2-yl)methyl)pyridin-4-yl)cyclopropanesulfonamide]"
12,> 7.00,"CCOc1cncc(-c2ccc3c(c2)CN(C(CC)c2csc(NS(=O)(=O)C4CC4)n2)C3=O)n1 (stereo in doubt) [I-12, (R)—N-(4-(1-(5-(6-ethoxypyrazin-2-yl)-1-oxoisoindolin-2-yl)propyl)thiazol-2-yl)cyclopropanesulfonamide]"
13,6.00 to 7.00,"O=C(NCc1cc(NS(=O)(=O)C2CC2)ccn1)c1ncc(-c2cnn3ccccc23)s1 [I-237, N-((4-(cyclopropanesulfonamido)pyridin-2-yl)methyl)-5-(pyrazolo[1,5-a]pyridin-3-yl)thiazole-2-carboxamide]"
14,> 7.00,"CCOc1cncc(-c2ccc3c(c2)CN(C(CC)c2csc(NS(=O)(=O)C4CC4)n2)C3=O)n1 (centres unmarked) [I-6, N-(4-(1-(5-(6-ethoxypyrazin-2-yl)-1-oxoisoindolin-2-yl)propyl)thiazol-2-yl)cyclopropanesulfonamide]"
15,> 7.00,"CCOc1cncc(-c2ccc(C(=O)NCc3cc(NS(=O)(=O)CC(F)(F)F)ccn3)nc2)n1 [I-66, 5-(6-ethoxypyrazin-2-yl)-N-((4-((2,2,2-trifluoroethyl)sulfonamido)pyridin-2-yl)methyl)picolinamide]"
16,> 7.00,"CCOc1cncc(-c2cnc(C(=O)N[C@@H](CN3CCCC3)c3cc(NS(=O)(=O)C4CC4)ccn3)s2)n1 [I-198, (S)—N-(1-(4-(cyclopropanesulfonamido)pyridin-2-yl)-2-(pyrrolidin-1-yl)ethyl)-5-(6-ethoxypyrazin-2-yl)thiazole-2-carboxamide]"
17,> 7.00,CCOc1cncc(-c2cnc(C(=O)NC(COC)c3cc(NS(=O)(=O)C4CC4)ccn3)s2)n1 (centres unmarked) [I-194]
18,> 7.00,"CCOc1cncc(-c2cnc(C(=O)NC(CCN3CCOCC3)c3cc(NS(=O)(=O)C4CC4)ccn3)s2)n1 (centres unmarked) [I-179, N-(1-(4-(cyclopropanesulfonamido)pyridin-2-yl)-3-morpholinopropyl)-5-(6-ethoxypyrazin-2-yl)thiazole-2-carboxamide]"
19,> 7.00,"CCOc1cncc(-c2cnc(C(=O)N3CCC[C@@H]3c3cncc(NS(=O)(=O)C4CC4)c3)s2)n1 [I-225, (R)—N-(5-(1-(5-(6-ethoxypyrazin-2-yl)thiazole-2-carbonyl)pyrrolidin-2-yl)pyridin-3-yl)cyclopropanesulfonamide]"
20,> 7.00,"CCOc1cncc(-c2cnc(C(=O)N3CCNC[C@@H]3c3cc(NS(=O)(=O)C4CC4)ccn3)s2)n1 [I-212, (R)—N-(2-(1-(5-(6-ethoxypyrazin-2-yl)thiazole-2-carbonyl)piperazin-2-yl)pyridin-4-yl)cyclopropanesulfonamide]"

row,pIC50,Structure (SMILES)
1,> 7.00,CCOc1cncc(-c2cnc(C(=O)NC(CN3CCC3)c3cc(NS(=O)(=O)C4CC4)ccn3)s2)n1 (centres unmarked) [I-228]
2,≤ 6.00,"CCOc1cncc(-n2ccc(C(=O)N3CCC[C@@H]3c3cccc(NS(=O)(=O)C(F)F)c3)n2)n1 [I-79, N-[3-[(2R)-1-[1-(6-ethoxypyrazin-2-yl)pyrazole-3-carbonyl]pyrrolidin-2-yl]phenyl]-1,1-difluoromethanesulfonamide]"
3,≤ 6.00,"CCc1nc2ccc(C(=O)NCc3cc(NS(=O)(=O)C4CC4)ccn3)cc2[nH]c1=O [I-180, N-((4-(cyclopropanesulfonamido)pyridin-2-yl)methyl)-2-ethyl-3-oxo-3,4-dihydroquinoxaline-6-carboxamide]"
4,> 7.00,"CCOc1cncc(-c2cnc(C(=O)N[C@H](c3cc(NS(=O)(=O)C4CC4)ccn3)[C@@H]3CCOC3)s2)n1 (single isomer, unassigned) [I-94]"
5,> 7.00,CCOc1cncc(-c2cnc(C(=O)NC(CN3CCOCC3(C)C)c3cc(NS(=O)(=O)C4CC4)ccn3)s2)n1 (centres unmarked) [I-122]
6,≤ 6.00,"C[C@H]1Cc2nc(C(=O)NCc3cc(NS(=O)(=O)C4CC4)ccn3)cnc2N(C2CCC2)C1 [I-263, (S)-5-cyclobutyl-N-((4-(cyclopropanesulfonamido)pyridin-2-yl)methyl)-7-methyl-5,6,7,8-tetrahydropyrido[2,3-b]pyrazine-2-carboxamide]"
7,> 7.00,CCOc1cncc(-c2nnc(C(=O)N[C@@H](CC)c3cc(NS(=O)(=O)C4CC4)ccn3)s2)n1 [I-239]
8,6.00 to 7.00,"CCOc1cncc(-c2cnc(C(=O)N3CCC[C@H]3c3cncc(NS(=O)(=O)C4CC4)c3)s2)n1 [I-226, (S)—N-(5-(1-(5-(6-ethoxypyrazin-2-yl)thiazole-2-carbonyl)pyrrolidin-2-yl)pyridin-3-yl)cyclopropanesulfonamide]"
9,> 7.00,CCOc1cncc(-c2ncc(C(=O)NCc3cc(NS(=O)(=O)C4CC4)ccn3)s2)n1 [I-32]
10,6.00 to 7.00,"O=C(NCc1cc(NS(=O)(=O)C2CC2)ccn1)c1ncc(-n2cnc3ccc(Cl)cc32)s1 [I-193, 5-(6-chloro-1H-benzo[d]imidazol-1-yl)-N-((4-(cyclopropanesulfonamido)pyridin-2-yl)methyl)thiazole-2-carboxamide]"
11,> 7.00,"CCOc1cncc(-c2cnc(C(=O)N[C@@H](CN3[C@H](C)COC[C@@H]3C)c3cc(NS(=O)(=O)C4CC4)ccn3)s2)n1 (single isomer, unassigned) [I-109]"
12,> 7.00,"CCOc1cncc(-c2cnc(C(=O)N[C@H](c3cc(NS(=O)(=O)C4CC4)ccn3)[C@H]3CCOC3)s2)n1 (single isomer, unassigned) [I-95]"
13,≤ 6.00,"CCn1ncc2ncc(-c3cnc(C(=O)NCc4cc(NS(=O)(=O)C5CC5)ccn4)s3)nc21 [I-149, N-((4-(cyclopropanesulfonamido)pyridin-2-yl)methyl)-5-(1-ethyl-1H-pyrazolo[3,4-b]pyrazin-6-yl)thiazole-2-carboxamide]"
14,> 7.00,"CCOc1cncc(-c2cnc(C(=O)N[C@H](CN(C)C)c3cc(NS(=O)(=O)C4CC4)ccn3)s2)n1 (single isomer, unassigned) [I-233]"
15,> 7.00,"CCOc1cncc(-c2cnc(C(=O)N[C@H](CN3CCN(C(C)C)CC3)c3cc(NS(=O)(=O)C4CC4)ccn3)s2)n1 (single isomer, unassigned) [I-121]"
16,> 7.00,CCOc1cncc(-c2cnc(C(=O)NC(CN3CCOCC3)c3cc(NS(=O)(=O)C4CC4)ccn3)s2)n1 (centres unmarked) [I-245]
17,6.00 to 7.00,"CCOc1cncc(-c2ccc(C(=O)NCc3ccnc(NS(=O)(=O)C4CC4)c3)cc2)n1 [I-17, N-((2-(cyclopropanesulfonamido)pyridin-4-yl)methyl)-4-(6-ethoxypyrazin-2-yl)benzamide]"
18,> 7.00,"CCOc1cncc(-c2cnc(C(=O)NC(CCN3CCCC3)c3cc(NS(=O)(=O)C4CC4)ccn3)s2)n1 (centres unmarked) [I-175, N-(1-(4-(cyclopropanesulfonamido)pyridin-2-yl)-3-(pyrrolidin-1-yl)propyl)-5-(6-ethoxypyrazin-2-yl)thiazole-2-carboxamide]"
19,≤ 6.00,"C[C@@H]1Cc2nc(C(=O)NCc3cc(NS(=O)(=O)C4CC4)ccn3)cnc2N(C2CCC2)C1 [I-264, (R)-5-cyclobutyl-N-((4-(cyclopropanesulfonamido)pyridin-2-yl)methyl)-7-methyl-5,6,7,8-tetrahydropyrido[2,3-b]pyrazine-2-carboxamide]"

row,Structure (SMILES),pIC50
1,"CCOc1cncc(-c2cnc(C(=O)NCc3cc(NS(=O)(=O)C4CC4)ccn3)o2)n1 [I-56, N-((4-(cyclopropanesulfonamido)pyridin-2-yl)methyl)-5-(6-ethoxypyrazin-2-yl)oxazole-2-carboxamide]",≤ 6.00
2,CCOc1cncc(-c2nnc(C(=O)NCc3cc(NS(=O)(=O)C4CC4)ccn3)o2)n1 [I-57],≤ 6.00

# From US12331046B2, “CTPS1 inhibitors and uses thereof” (Nimbus Clotho, Inc., priority 2020, dated 2025)
